This note sets out measurements from EP4516309A1, “CRHR1 AGONISTS FOR USE IN THE TREATMENT OF SOCIAL ANXIETY DISORDERS” (Consejo Superior de Investigaciones Cientificas, priority 2023, dated 2025).

The experiment has as its target T1, inhibitory DREADD (Homo sapiens, UniProt P08173, A203G/Y113C).
T1 construct: host or cells: ILA CRH+ neurons of CRH-Cre mice, Cre-dependent AAV2/8 transduction in vivo
T1 sequence (P08173 1-479 Y113C/A203G): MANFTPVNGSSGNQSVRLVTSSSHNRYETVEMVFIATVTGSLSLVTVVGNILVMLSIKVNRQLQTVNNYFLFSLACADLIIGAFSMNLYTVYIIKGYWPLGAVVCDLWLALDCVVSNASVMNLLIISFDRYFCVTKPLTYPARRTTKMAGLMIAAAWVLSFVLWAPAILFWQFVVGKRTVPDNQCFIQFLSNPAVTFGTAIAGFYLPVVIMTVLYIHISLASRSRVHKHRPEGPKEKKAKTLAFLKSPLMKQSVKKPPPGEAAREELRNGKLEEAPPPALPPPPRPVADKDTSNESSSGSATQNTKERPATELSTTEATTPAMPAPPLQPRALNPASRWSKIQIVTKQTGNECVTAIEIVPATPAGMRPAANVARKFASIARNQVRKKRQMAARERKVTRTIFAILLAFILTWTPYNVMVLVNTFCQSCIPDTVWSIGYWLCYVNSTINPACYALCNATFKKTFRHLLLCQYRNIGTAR
The experiment can be described thus: Repetitive social presentation test with chemogenetic silencing of ILA CRH cells. Format: in vivo, CRH-Cre mice. As to conditions: CNO; iDREADD in ILA CRH cells. The protocol: Injection coordinates were the following (in mm from Bregma): AP: 1.65, ML: ±0.1, DV: -2.6. Injections were done bilaterally with 100 nl injected per site. AAV2/DJ hSyn.FLEX.mGFP.2A.Synatophysin-mRuby (Addgene #71760 prepared by the Stanford University vector core #1930), AAV2/8 hSyn.DIO.hM4D(Gi)-mCherry (Addgene #44362-AAV8), AAV2/8 hSyn.DIO.mCherry (Addgene #50459-AAV8), AAV2/5-hSyn-DIO-hM3D(Gq)-mCherry (Addgene, #44361-AAV5), AAV2/5 hsyn.DIO.mCherry (Addgene #50459-AAV5), AAV2/1 syn.FLEX.GCaMP6f.WPRE.SV40 (Addgene #100833-AAV1), AAV2/9 CMV-DIO-(mCherry-U6)-shRNA(anti-Crh) (VTA brain), AAV2/9 CMV-DIO-(mCherry-U6)-shRNA(scrambled) (VTA brain), AAV2/9 hSyn.FLEX.dsRed-shRNA(Vgat) (Addgene #67845), AAV 2/9 hSyn-flex-dsRed-shRNA(scrambled) (Addgene #71383), AAV2/2 CAG.FLEX.ArchT-tdTomato (Addgene #28305 prepared by the University of North Carolina vector core) and AAV2/2 CAG.FLEX.tdTomato (Addgene #28306 prepared by the University of North Carolina vector core) were injected into the ILA of CRH-Cre mice. Viruses expressed for a minimum of 2 weeks.
Repetitive social presentation test. […] Films were scored offline for social interaction by a trained observer blind to the experimental condition. Sniffing of any part of the body, allo-grooming and close following counted as social interaction. […]

Take `C[N+]1([O-])CCN(C2=Nc3cc(Cl)ccc3Nc3ccccc32)CC1` [CNO, clozapine N-oxide]: the “interaction time during the repeated presentations” value was “showed no decrease in interaction time”.
